Patent US20160346324A1, “Method of Inactivating Bacterial Lipases Using Oxidative Chlorine Species” (NovaBay Pharmaceuticals, Inc., priority 2015, published 2016)
Entries after “also recorded” stand apart in the source; their conditions may differ.

Experiments:
Type in all cases: biochemical
[1] = tested on: Talaromyces flavus lipase; assay: Lipase Activity Assay Kit III, Talaromyces flavus lipase treated with HOCl; conditions: one hour at 37° C.
Procedure: (§1) Lipases from Burkholderia cepacia, Pseudomonas fluorescens, Thermus thermophilus, Talaromyces flavus and Burkholderia species were obtained from Sigma (Catalog Numbers 62309, 28602, L3419, L3294 and 75577, respectively) and were diluted into sterile water for testing.
(§2) Alternative procedure: Activity of 0.01% HOCl in saline pH 4 against each lipase was determined as follows. 10 μL of 0.01% HOCl was added to 90 μL of 2 mg/mL lipase (final concentration of HOCl 0.001%). After one hour of incubation at 37° C., the lipase-HOCl solutions were diluted 500-fold into lipase buffer. Alternatively, 90 μL of 0.01% HOCl was added to 10 μL solution of 2 mg/mL lipase (final concentration of HOCl 0.009%) and after an hour of incubation at 37° C., the lipase-HOCl solutions were diluted 50-fold into lipase buffer. The lipase activity was determined using the Lipase Activity Assay Kit III (Sigma Aldrich®, St. Louis, Mo., USA).
(§3) Alternative procedure without a 10 minutes incubation: A SpectraMax® M5 Microplate Reader was used to continuously incubate the microtiter plate at 37° C. and measure the fluorescence ([…]=529/600 nm) every 5 minutes for 1.5 hours with no incubation period. The results are shown on FIG. 1. […]
(§4) Activity of lipases from Pseudomonas fluorescens, Thermusthermophilus, flavus and Burkholderia are determined using methods similar to the one described above for Burkholderia cepacia lipase. […]

[2] = tested on: lipase; assay: Lipase Activity Assay Kit III, lipase stock treated with equal part of test product versus sterile water; conditions: 0.01% HOCl solution, 37° C. for 1 hour
Procedure: Merck describes a fluorimetric method where lipase activity is determined using a coupled enzyme reaction, which results in the generation of methylresorufin (lex=529/lem=600 nm) proportional to the enzymatic activity present. One unit of lipase is the amount of enzyme that will generate […] of methylresorufin from the substrate per minute at 37° C. (Lipase Activity Assay Kit III Catalog Number MAK048). The lipase stock was treated with equal part of the test product. The control consisted of equal parts of the lipase stock and sterile water. Both were incubated at 37° C. for 1 hour.
The Lipase Activity Assay Kit III (Sigma MAK048) consisted of materials for a standard, a positive control and background control. Once all the controls and the standard were set-up into a 96-well microtiter plate according to the provided instructions, 2 μL of the lipase treatments were diluted into 998 μL of the provided Lipase Assay Buffer. In the microtiter plate, 2 μL of this dilution was added to 48 μL of the Lipase Assay Buffer in quintuplicate. The reaction mix was added to every well except for the standard.
Using the SpectraMax M5, the plate was shaken and incubated for 3 minutes prior to reading the relative fluorescence units (RFU) at λex/λem=529/600 nm. Incubation was continued at 37° C. and the microtiter plate was read every 5 minutes for 1 hour with shaking prior to every reading.

[3] = target: T1, Burkholderia cepacia lipase (Burkholderia cepacia, UniProt P22088); assay: Lipase Activity Assay Kit III, Burkholderia cepacia lipase treated with HOCl; conditions: one hour at 37° C.
T1 construct: purchased Sigma 62309
T1 sequence (P22088 45-364): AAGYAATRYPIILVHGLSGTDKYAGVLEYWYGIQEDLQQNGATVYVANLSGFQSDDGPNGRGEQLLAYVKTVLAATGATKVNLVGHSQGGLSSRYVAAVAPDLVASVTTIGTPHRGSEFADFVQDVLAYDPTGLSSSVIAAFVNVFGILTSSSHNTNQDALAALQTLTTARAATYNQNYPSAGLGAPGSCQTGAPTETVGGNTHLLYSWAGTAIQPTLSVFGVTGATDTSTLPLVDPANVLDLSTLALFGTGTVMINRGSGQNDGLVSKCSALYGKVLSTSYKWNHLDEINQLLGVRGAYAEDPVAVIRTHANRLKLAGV
Procedure: as §1
Activity of 0.01% HOCl in saline pH 4 against Burkholderia cepacia lipase was determined as follows. 0.01% HOCl was added to a solution of 2 mg/mL of Pseudomonas cepacia lipase (Sigma Aldrich®, St. Louis, Mo., USA). After an hour of incubation at 37° C., the lipase-HOCl solutions were diluted 500-fold into lipase buffer. The lipase activity was determined using the Lipase Activity Assay Kit III (Sigma Aldrich®, St. Louis, Mo., USA).
as §2
A SpectraMax® M5 Microplate Reader was used to continuously incubate the microtiter plate at 37° C. and measure the fluorescence ([…]=529/600 nm) every 5 minutes for 1.5 hours after an initial 10-minute incubation period. The results are shown on FIG. 1.
Alternative procedure without a 10 minutes incubation: A SpectraMax® M5 Microplate Reader was used to continuously incubate the microtiter plate at 37° C. and measure the fluorescence ([…]=529/600 nm) every 5 minutes for 1.5 hours with no incubation period. The results are shown on FIG. 1. […] The results are shown on FIGS. 1, 2, and 3. […] In the presence of 0.009% HOCl, all lipases were inactivated (FIGS. 2, 3).

[4] = tested on: Pseudomonas fluorescens lipase; assay: Lipase Activity Assay Kit III, Pseudomonas fluorescens lipase treated with HOCl; conditions: one hour at 37° C.
Procedure: as §1, §2, §3, §4

[5] = 0.001% HOCl final concentration
[6] = 0.009% HOCl final concentration

OCl [HOCl, hypochlorous acid]
inactivation of Talaromyces flavus lipase [1, 5]: inactivation; also recorded: completely inactivated | inactivation of Talaromyces flavus lipase [1, 6]: inactivated | inactivation of lipase versus sterile water control [2]: inactivates lipase | inactivation of Burkholderia cepacia lipase [3, 5]: still active | inactivation of Burkholderia cepacia lipase [3, 6]: inactivation; also recorded: inactivated | inactivation of bacterial lipase (lipase activity, fluorescence) ([3]; 0.01% HOCl in saline pH 4, 2 mg/mL lipase): completely inactivated | inactivation of Pseudomonas fluorescens lipase [4, 5]: still active | inactivation of Pseudomonas fluorescens lipase [4, 6]: inactivation; also recorded: inactivated
